Measured values: US20080274892A1, “Novel Haloalkylsulfonanilide Derivative, Herbicide, and Method of Use Thereof” (priority 2005, published 2008)

Legend:
bulrush [1] = experiment: Test Example 1: herbicidal efficacy on rice paddy weeds pre-emergence; type: in vivo, Scirpus juncoides; conditions: 21 days
false pimpernel [2] = experiment: as above; type: in vivo, Lindernia pyxidaria; conditions: 21 days
barnyard glass = experiment: Test Example 2: herbicidal efficacy on rice paddy weeds post-emergence; type: in vivo, Echinochloa crus-galli; conditions: post-emergence, one leaf stage, 21 days after treatment
How it was run: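 Plastic pots of 75 cm^2 were filled with clay loam soil and sown with barnyard glass and bulrush seeds, then topped with 75 cm^3 soil containing false pimpernel seeds. The pots were flooded to 5 cm water depth and held in a hot house. Twenty-one days after treatment, herbicidal efficacy was graded against an untreated control.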

bulrush [3] = experiment: as above; type: in vivo, Scirpus juncoides; conditions: post-emergence, one leaf stage, 21 days after treatment
false pimpernel [4] = experiment: as above; type: in vivo, Lindernia pyxidaria; conditions: post-emergence, one leaf stage, 21 days after treatment
[5] = test system: paddy rice plant (cultivar: Nihonbare); experiment: Test Example 3: phytotoxicity test for transplanted paddy rice plant; type: in vivo; conditions: transplanted rice, 21 days after treatment
How it was run: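 Clay loam soil was placed in a 75 cm^2 plastic pot and flooded to a water depth of 5 cm. Two Nihonbare paddy rice plants at the two-leaf stage were transplanted 1 cm deep and grown in a hot house. After treatment, pots stayed in the hot house for 21 days, and phytotoxicity was then graded against an untreated control.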

bulrush [6] = experiment: Test Example 4: low dosage test for rice paddy weeds; type: in vivo, Scirpus juncoides; conditions: 300 g/ha as an active ingredient; plants treated at the one leaf stage; 21 days after treatment; vs untreated control
How it was run: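 Bulrush sown in clay loam pots, flooded to 5 cm water in a hot house, treated at the one-leaf stage with formulated compound at 300 g/ha. Efficacy scored 0–4 against untreated control 21 days after treatment (4 = 90–100%, 0 = 0% inhibition).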

[7] = test system: transplanted paddy rice plant and Bulrush; experiment: Test Example 5: selectivity between transplanted paddy rice plant and weeds; type: in vivo; conditions: (highest dosage with no phytotoxicity to paddy rice)/(lowest dosage with effective level 4 on Bulrush); rice 3000-100 g/ha, Bulrush 300-10 g/ha; 21 days
How it was run: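 Transplanted paddy rice was treated at 3000, 1000, 300 and 100 g/ha active ingredient for phytotoxicity, and post-emergence bulrush at 300, 100, 30 and 10 g/ha. Plants were kept in a hothouse for 21 days. Growth inhibition versus untreated control was scored 0–4 (0%, 1–39%, 40–69%, 70–89%, 90–100%).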

[8] = dosage 1000 g/ha, treated 5 days after transplantation

Row | Structure (SMILES) | Bulrush pre (herbicidal efficacy grade) (bulrush [1]; dosage 300 g/ha) | False pimpernel pre (herbicidal efficacy grade) (false pimpernel [2]; dosage 300 g/ha) | Burnyard grass post (herbicidal efficacy grade) (barnyard glass; dosage 300 g/ha) | Bulrush post (herbicidal efficacy grade) (bulrush [3]; dosage 300 g/ha) | False pimpernel post (herbicidal efficacy grade) (false pimpernel [4]; dosage 300 g/ha) | Phytotoxicity to paddy rice ([5]; dosage 300 g/ha) | Herbicide effect to Bulrush (bulrush [6]) | Selective Index [7] | Bulrush pre (herbicidal efficacy grade) (bulrush [1]; dosage 1000 g/ha) | False pimpernel pre (herbicidal efficacy grade) (false pimpernel [2]; dosage 1000 g/ha) | Burnyard grass post (herbicidal efficacy grade) (barnyard glass; dosage 1000 g/ha) | Bulrush post (herbicidal efficacy grade) (bulrush [3]; dosage 1000 g/ha) | False pimpernel post (herbicidal efficacy grade) (false pimpernel [4]; dosage 1000 g/ha) | Phytotoxicity to paddy rice [5, 8]
1 | CCC1OC(=O)N(Cc2ccccc2NS(=O)(=O)C(F)(F)F)C1=O (centres unmarked) [1-192] | 4 (90%-100% of herbicidal efficacy or phytotoxicity) | 4 (90%-100% of herbicidal efficacy or phytotoxicity) | 0 (0% of herbicidal efficacy or phytotoxicity) | 4 (90%-100% of herbicidal efficacy or phytotoxicity) | 0 (0% of herbicidal efficacy or phytotoxicity) | 1 (1%-39% of herbicidal efficacy or phytotoxicity) | 4 (90%-100% of herbicidal efficacy or phytotoxicity) | 10 |  |  |  |  |  | 
2 | CC(C)COC(=O)N(c1ccccc1CN1CC(C)(C)OC1=S)S(=O)(=O)C(F)(F)F [1-50] |  |  |  |  |  |  | 4 (90%-100% of herbicidal efficacy or phytotoxicity) | 10 | 4 (90%-100% of herbicidal efficacy or phytotoxicity) | 4 (90%-100% of herbicidal efficacy or phytotoxicity) | 4 (90%-100% of herbicidal efficacy or phytotoxicity) | 4 (90%-100% of herbicidal efficacy or phytotoxicity) | 4 (90%-100% of herbicidal efficacy or phytotoxicity) | 2 (40%-69% of herbicidal efficacy or phytotoxicity)
3 | CCCC1(C)CN(Cc2ccccc2N(C(=O)OC)S(=O)(=O)C(F)(F)F)C(=O)O1 (racemic) [1-126] |  |  |  |  |  |  | 4 (90%-100% of herbicidal efficacy or phytotoxicity) | 10 | 4 (90%-100% of herbicidal efficacy or phytotoxicity) | 4 (90%-100% of herbicidal efficacy or phytotoxicity) | 4 (90%-100% of herbicidal efficacy or phytotoxicity) | 4 (90%-100% of herbicidal efficacy or phytotoxicity) | 4 (90%-100% of herbicidal efficacy or phytotoxicity) | 2 (40%-69% of herbicidal efficacy or phytotoxicity)
4 | CCC1(C)CN(Cc2ccccc2N(C(=O)OC)S(=O)(=O)C(F)(F)F)C(=O)O1 (racemic) [1-108] |  |  |  |  |  |  | 4 (90%-100% of herbicidal efficacy or phytotoxicity) | 30 | 4 (90%-100% of herbicidal efficacy or phytotoxicity) | 4 (90%-100% of herbicidal efficacy or phytotoxicity) | 4 (90%-100% of herbicidal efficacy or phytotoxicity) | 4 (90%-100% of herbicidal efficacy or phytotoxicity) | 4 (90%-100% of herbicidal efficacy or phytotoxicity) | 2 (40%-69% of herbicidal efficacy or phytotoxicity)
5 | CCC1(C)CN(Cc2ccccc2NS(=O)(=O)C(F)(F)F)C(=O)O1 (racemic) [1-59] | 4 (90%-100% of herbicidal efficacy or phytotoxicity) | 4 (90%-100% of herbicidal efficacy or phytotoxicity) | 3 (70%-89% of herbicidal efficacy or phytotoxicity) | 4 (90%-100% of herbicidal efficacy or phytotoxicity) | 4 (90%-100% of herbicidal efficacy or phytotoxicity) | 3 (70%-89% of herbicidal efficacy or phytotoxicity) | 4 (90%-100% of herbicidal efficacy or phytotoxicity) | 3.3 |  |  |  |  |  | 
6 | CC(C)COC(=O)N(c1ccccc1CN1C(=O)OCC1C)S(=O)(=O)C(F)(F)F (centres unmarked) [1-4] |  |  |  |  |  |  | 4 (90%-100% of herbicidal efficacy or phytotoxicity) | 10 | 4 (90%-100% of herbicidal efficacy or phytotoxicity) | 4 (90%-100% of herbicidal efficacy or phytotoxicity) | 4 (90%-100% of herbicidal efficacy or phytotoxicity) | 4 (90%-100% of herbicidal efficacy or phytotoxicity) | 4 (90%-100% of herbicidal efficacy or phytotoxicity) | 2 (40%-69% of herbicidal efficacy or phytotoxicity)
7 | COC(=O)N(c1ccccc1CN1CC(C)(C(F)(F)F)OC1=O)S(=O)(=O)C(F)(F)F (centres unmarked) [1-143] |  |  |  |  |  |  | 4 (90%-100% of herbicidal efficacy or phytotoxicity) | 10 | 4 (90%-100% of herbicidal efficacy or phytotoxicity) | 4 (90%-100% of herbicidal efficacy or phytotoxicity) | 4 (90%-100% of herbicidal efficacy or phytotoxicity) | 4 (90%-100% of herbicidal efficacy or phytotoxicity) | 4 (90%-100% of herbicidal efficacy or phytotoxicity) | 1 (1%-39% of herbicidal efficacy or phytotoxicity)
8 | CCOC(=O)N(c1ccccc1CN1CC(CC)(CC)OC1=O)S(=O)(=O)C(F)(F)F [1-97] |  |  |  |  |  |  | 4 (90%-100% of herbicidal efficacy or phytotoxicity) | 30 | 4 (90%-100% of herbicidal efficacy or phytotoxicity) | 4 (90%-100% of herbicidal efficacy or phytotoxicity) | 4 (90%-100% of herbicidal efficacy or phytotoxicity) | 4 (90%-100% of herbicidal efficacy or phytotoxicity) | 4 (90%-100% of herbicidal efficacy or phytotoxicity) | 1 (1%-39% of herbicidal efficacy or phytotoxicity)
9 | CCCC1(CC)CN(Cc2ccccc2NS(=O)(=O)C(F)(F)F)C(=O)O1 (centres unmarked) [1-130] |  |  |  |  |  |  | 4 (90%-100% of herbicidal efficacy or phytotoxicity) | 10 | 4 (90%-100% of herbicidal efficacy or phytotoxicity) | 4 (90%-100% of herbicidal efficacy or phytotoxicity) | 4 (90%-100% of herbicidal efficacy or phytotoxicity) | 4 (90%-100% of herbicidal efficacy or phytotoxicity) | 4 (90%-100% of herbicidal efficacy or phytotoxicity) | 1 (1%-39% of herbicidal efficacy or phytotoxicity)
10 | CC(C)COC(=O)N(c1ccccc1CN1C(=O)OC2CCCCC21)S(=O)(=O)C(F)(F)F (centres unmarked) [1-48] |  |  |  |  |  |  | 3 (70%-89% of herbicidal efficacy or phytotoxicity) | 10 | 4 (90%-100% of herbicidal efficacy or phytotoxicity) | 4 (90%-100% of herbicidal efficacy or phytotoxicity) | 4 (90%-100% of herbicidal efficacy or phytotoxicity) | 4 (90%-100% of herbicidal efficacy or phytotoxicity) | 4 (90%-100% of herbicidal efficacy or phytotoxicity) | 1 (1%-39% of herbicidal efficacy or phytotoxicity)
